The source of these data is article PMC5218480 (PLoS ONE, 2017).

In the test the test system is MV-4-11 cells. Nature of the test: Gene expression microarray analysis (Affymetrix PrimeView) and GSEA. As to conditions: MV-4-11 cells, 48 hours. More on the design: RFU PODN (11730768_x_at) / Fold change /veh PODN (11730768_x_at) / RFU LINC00158 (11744669_a_at) / Fold change /veh LINC00158 (11744669_a_at) / RFU DUSP10 (11751237_a_at) / Fold change /veh DUSP10 (11751237_a_at) / RFU ID3 (11757404_x_at) / Fold change /veh ID3 (11757404_x_at) / RFU PLEKHG5 (11737974_s_at) / Fold change /veh PLEKHG5 (11737974_s_at) / RFU LRRC4B (11730491_at) / Fold change /veh LRRC4B (11730491_at) / RFU GIMAP4 (11747438_a_at) / Fold change /veh GIMAP4 (11747438_a_at) / RFU KRT8 (11758183_x_at) / Fold change /veh KRT8 (11758183_x_at) / RFU CNN1 (11734310_a_at) / Fold change /veh CNN1 (11734310_a_at) / RFU VPS37D (11726825_at) / Fold change /veh VPS37D (11726825_at) / RFU C10orf10 (11716522_x_at) / Fold change /veh C10orf10 (11716522_x_at) / RFU KIR2DL2 /// KIR2DL4 /// KIR2DL5A /// KIR2DL5B /// KIR2DS1 /// KIR2DS2 /// KIR2DS3 /// KIR2DS4 /// KIR3DL3 /// KIR3DL3 /// KIR3DS1 (11738374_at) / Fold change /veh KIR2DL2 /// KIR2DL4 /// KIR2DL5A /// KIR2DL5B /// KIR2DS1 /// KIR2DS2 /// KIR2DS3 /// KIR2DS4 /// KIR3DL3 /// KIR3DL3 /// KIR3DS1 (11738374_at) / RFU C1QL1 (11718748_at) / Fold change /veh C1QL1 (11718748_at) / RFU TMPRSS4 (11747572_a_at) / Fold change /veh TMPRSS4 (11747572_a_at) / RFU HAMP (11756126_x_at) / Fold change /veh HAMP (11756126_x_at) / RFU RNFT2 (11725882_a_at) / Fold change /veh RNFT2 (11725882_a_at) / RFU NR4A2 (11747474_a_at) / Fold change /veh NR4A2 (11747474_a_at) / RFU ABCC12 (11746883_a_at) / Fold change /veh ABCC12 (11746883_a_at) / RFU TMEM136 (11760407_x_at) / Fold change /veh TMEM136 (11760407_x_at) / RFU CLDN22 /// WWC2 (11732394_at) / Fold change /veh CLDN22 /// WWC2 (11732394_at) / RFU HLA-DPB1 (11760878_x_at) / Fold change /veh HLA-DPB1 (11760878_x_at) / RFU SPINT1 (11716480_a_at) / Fold change /veh SPINT1 (11716480_a_at) / RFU GAP43 (11754022_s_at) / Fold change /veh GAP43 (11754022_s_at) / RFU A4GNT (11735810_at) / Fold change /veh A4GNT (11735810_at) / RFU PRB3 (11715151_x_at) / Fold change /veh PRB3 (11715151_x_at) / RFU TUBB4B (11761932_at) / Fold change /veh TUBB4B (11761932_at) / RFU CAPN14 (11732068_a_at) / Fold change /veh CAPN14 (11732068_a_at) / RFU TMCC2 (11721928_a_at) / Fold change /veh TMCC2 (11721928_a_at) / RFU IRGQ (11745062_a_at) / Fold change /veh IRGQ (11745062_a_at) / RFU FAM174B (11720279_a_at) / Fold change /veh FAM174B (11720279_a_at) / RFU TMPRSS4 (11748680_a_at) / Fold change /veh TMPRSS4 (11748680_a_at) / RFU FAM212B (11763350_a_at) / Fold change /veh FAM212B (11763350_a_at) / RFU PLEKHG5 (11743358_a_at) / Fold change /veh PLEKHG5 (11743358_a_at) / RFU ZSCAN30 (11745921_a_at) / Fold change /veh ZSCAN30 (11745921_a_at) / RFU CMKLR1 (11741424_a_at) / Fold change /veh CMKLR1 (11741424_a_at) / RFU LOC101060620 /// MAPK8IP1 (11723275_at) / Fold change /veh LOC101060620 /// MAPK8IP1 (11723275_at) / RFU SPTSSB (11747773_x_at) / Fold change /veh SPTSSB (11747773_x_at) / RFU PRSS12 (11739890_at) / Fold change /veh PRSS12 (11739890_at) / RFU BIN1 (11741810_x_at) / Fold change /veh BIN1 (11741810_x_at) / RFU WNT11 (11732464_a_at) / Fold change /veh WNT11 (11732464_a_at) / RFU C10orf10 (11716521_a_at) / Fold change /veh C10orf10 (11716521_a_at) / RFU C5orf56 (11738089_at) / Fold change /veh C5orf56 (11738089_at) / RFU CYB561 (11721691_x_at) / Fold change /veh CYB561 (11721691_x_at) / RFU ANKRD19P (11752326_a_at) / Fold change /veh ANKRD19P (11752326_a_at) / RFU OR2T12 /// OR2T33 /// OR2T8 (11738714_s_at) / Fold change /veh OR2T12 /// OR2T33 /// OR2T8 (11738714_s_at) / RFU VCAN (11748164_a_at) / Fold change /veh VCAN (11748164_a_at) / RFU JSRP1 (11732532_at) / Fold change /veh JSRP1 (11732532_at) / RFU KRTAP10-11 (11738290_x_at) / Fold change /veh KRTAP10-11 (11738290_x_at) / RFU MYO3A (11730013_a_at) / Fold change /veh MYO3A (11730013_a_at) / RFU EBF3 (11725865_a_at) / Fold change /veh EBF3 (11725865_a_at) / RFU CAMK2N1 (11719241_x_at) / Fold change /veh CAMK2N1 (11719241_x_at) / RFU C5orf56 (11738088_a_at) / Fold change /veh C5orf56 (11738088_a_at) / RFU OLFML3 (11715873_a_at) / Fold change /veh OLFML3 (11715873_a_at) / RFU LOC100653217 /// NTM (11731650_a_at) / Fold change /veh LOC100653217 /// NTM (11731650_a_at) / RFU MAPK11 (11762145_a_at) / Fold change /veh MAPK11 (11762145_a_at) / RFU FIZ1 (11724087_x_at) / Fold change /veh FIZ1 (11724087_x_at) / RFU OASL (11726364_x_at) / Fold change /veh OASL (11726364_x_at) / RFU SOX15 (11748057_x_at) / Fold change /veh SOX15 (11748057_x_at) / RFU CD79A (11719716_a_at) / Fold change /veh CD79A (11719716_a_at) / RFU HIST1H1D (11736915_at) / Fold change /veh HIST1H1D (11736915_at) / RFU CASKIN2 (11723855_a_at) / Fold change /veh CASKIN2 (11723855_a_at) / RFU LOC730098 (11760151_x_at) / Fold change /veh LOC730098 (11760151_x_at) / RFU OR4N2 (11742367_at) / Fold change /veh OR4N2 (11742367_at) / RFU PRRT2 (11749266_a_at) / Fold change /veh PRRT2 (11749266_a_at) / RFU SNX32 (11753110_a_at) / Fold change /veh SNX32 (11753110_a_at) / RFU CDHR5 (11726645_a_at) / Fold change /veh CDHR5 (11726645_a_at) / RFU RCAN1 (11760418_a_at) / Fold change /veh RCAN1 (11760418_a_at) / RFU FAM167A (11723789_a_at) / Fold change /veh FAM167A (11723789_a_at) / RFU FAM26E (11764081_at) / Fold change /veh FAM26E (11764081_at) / RFU ISYNA1 (11749810_s_at) / Fold change /veh ISYNA1 (11749810_s_at) / RFU ACY1 (11761880_at) / Fold change /veh ACY1 (11761880_at) / RFU 11764098_at / Fold change /veh 11764098_at / RFU SAMD14 (11745864_x_at) / Fold change /veh SAMD14 (11745864_x_at) / RFU NPB (11741838_a_at) / Fold change /veh NPB (11741838_a_at) / RFU TMPRSS6 (11731388_a_at) / Fold change /veh TMPRSS6 (11731388_a_at) / RFU KRTAP10-2 (11738614_at) / Fold change /veh KRTAP10-2 (11738614_at) / RFU ARHGAP8 /// PRR5-ARHGAP8 (11727945_x_at) / Fold change /veh ARHGAP8 /// PRR5-ARHGAP8 (11727945_x_at) / RFU KRTAP5-7 /// NADSYN1 (11734609_at) / Fold change /veh KRTAP5-7 /// NADSYN1 (11734609_at) / RFU RASL12 (11751679_a_at) / Fold change /veh RASL12 (11751679_a_at) / RFU CDKN2B (11736163_a_at) / Fold change /veh CDKN2B (11736163_a_at) / RFU PRF1 (11729649_at) / Fold change /veh PRF1 (11729649_at) / RFU, ZNF638 /// ZNF638-IT1 / Fold change vs veh, ZNF638 /// ZNF638-IT1 / RFU, PANK3 / Fold change vs veh, PANK3 / RFU, SH3YL1 / Fold change vs veh, SH3YL1 / RFU, ZEB2 / Fold change vs veh, ZEB2 / RFU, NRIP1 / Fold change vs veh, NRIP1 / RFU, PTTG1IP / Fold change vs veh, PTTG1IP / RFU, CAPN2 / Fold change vs veh, CAPN2 / RFU, MED14 / Fold change vs veh, MED14 / RFU, SNORA58 / Fold change vs veh, SNORA58 / RFU, C1orf63 / Fold change vs veh, C1orf63 / RFU, LRRFIP1 / Fold change vs veh, LRRFIP1 / RFU, NDUFAF7 / Fold change vs veh, NDUFAF7 / RFU, SLC12A2 / Fold change vs veh, SLC12A2 / RFU, IBTK / Fold change vs veh, IBTK / RFU, ESF1 / Fold change vs veh, ESF1 / Fold change vs veh, TMEM50B / RFU, TAOK1 / Fold change vs veh, TAOK1 / RFU, ACBD3 / Fold change vs veh, ACBD3 / RFU, TMA16 / Fold change vs veh, TMA16 / RFU, RWDD3 / Fold change vs veh, RWDD3 / RFU, BCAT1 / Fold change vs veh, BCAT1 / RFU, EDEM3 / Fold change vs veh, EDEM3 / RFU, TMEM33 / Fold change vs veh, TMEM33 / RFU, WDR75 / Fold change vs veh, WDR75 / RFU, AHCTF1 / Fold change vs veh, AHCTF1 / RFU, TFRC / Fold change vs veh, TFRC / RFU, ZDHHC17 / Fold change vs veh, ZDHHC17 / RFU, NOM1 / Fold change vs veh, NOM1 / RFU, ARL8B / Fold change vs veh, ARL8B / RFU, ZBTB11 / Fold change vs veh, ZBTB11 / RFU, TAMM41 / Fold change vs veh, TAMM41 / RFU, KIAA1704 /// LOC100996395 / Fold change vs veh, KIAA1704 /// LOC100996395 / RFU, ING1 / Fold change vs veh, ING1 / RFU, TRMT61B / Fold change vs veh, TRMT61B / RFU, FUBP3 / Fold change vs veh, FUBP3 / RFU, TP53 / Fold change vs veh, TP53 / RFU, TNKS2 / Fold change vs veh, TNKS2 / RFU, ZFP14 / Fold change vs veh, ZFP14 / RFU, ACTR2 / Fold change vs veh, ACTR2 / RFU, PPP3R1 / Fold change vs veh, PPP3R1 / RFU, PIK3R1 / Fold change vs veh, PIK3R1 / RFU, HNRNPA1 / Fold change vs veh, HNRNPA1 / RFU, RNF170 / Fold change vs veh, RNF170 / RFU, ZNF28 / Fold change vs veh, ZNF28 / RFU, RNGTT / Fold change vs veh, RNGTT / RFU, OGT / Fold change vs veh, OGT / RFU, BRD1 / Fold change vs veh, BRD1 / RFU, MARS / Fold change vs veh, MARS / RFU, ZNF655 / Fold change vs veh, ZNF655 / RFU, FAHD1 / Fold change vs veh, FAHD1 / RFU, BDP1 / Fold change vs veh, BDP1 / RFU, LRRCC1 / Fold change vs veh, LRRCC1 / RFU, ARID1A / Fold change vs veh, ARID1A / RFU, ZNF146 / Fold change vs veh, ZNF146 / RFU, ZNF330 / Fold change vs veh, ZNF330 / RFU, GPN3 / Fold change vs veh, GPN3 / RFU, C9orf123 / Fold change vs veh, C9orf123 / RFU, N4BP2L2 / Fold change vs veh, N4BP2L2 / RFU, ARFIP1 / Fold change vs veh, ARFIP1 / RFU, FAM179B / Fold change vs veh, FAM179B / RFU, BCL10 / Fold change vs veh, BCL10 / RFU, UHRF1BP1L / Fold change vs veh, UHRF1BP1L / RFU, BET1 / Fold change vs veh, BET1 / RFU, CNOT2 / Fold change vs veh, CNOT2 / RFU, ZNF268 / Fold change vs veh, ZNF268 / Fold change vs veh, ZNF507 / RFU, DGCR2 / Fold change vs veh, DGCR2 / RFU, WDSUB1 / Fold change vs veh, WDSUB1 / Fold change vs veh, HSP90B1 /// MIR3652 / RFU, ADSS / Fold change vs veh, ADSS / RFU, GK / Fold change vs veh, GK / RFU, ZNF148 / Fold change vs veh, ZNF148 / RFU, TAF9 / Fold change vs veh, TAF9 / RFU, SLC1A5 / Fold change vs veh, SLC1A5 / RFU, SLMO2 / Fold change vs veh, SLMO2 / RFU, ABCC4 / Fold change vs veh, ABCC4 / RFU, LOC101060439 /// RAP1B / Fold change vs veh, LOC101060439 /// RAP1B / RFU, RFX7 / Fold change vs veh, RFX7 / RFU, GTPBP10 / Fold change vs veh, GTPBP10 / RFU, CNEP1R1 / Fold change vs veh, CNEP1R1 / RFU, BIVM-ERCC5 /// ERCC5 / Fold change vs veh, BIVM-ERCC5 /// ERCC5 / RFU, ILF3 / Fold change vs veh, ILF3 / RFU 11762660_at / Fold change /veh 11762660_at / RFU VCAN (11757783_s_at) / Fold change /veh VCAN (11757783_s_at) / RFU DDX43 (11728927_at) / Fold change /veh DDX43 (11728927_at) / RFU KRT8 (11758188_x_at) / Fold change /veh KRT8 (11758188_x_at) / RFU NKD1 (11759106_at) / Fold change /veh NKD1 (11759106_at) / RFU SRD5A1 (11742802_a_at) / Fold change /veh SRD5A1 (11742802_a_at) / RFU TPSAB1 /// TPSB2 (11721975_s_at) / Fold change /veh TPSAB1 /// TPSB2 (11721975_s_at) / RFU GSTM3 (11746129_a_at) / Fold change /veh GSTM3 (11746129_a_at) / RFU IL23R (11737362_x_at) / Fold change /veh IL23R (11737362_x_at) / RFU TMEM51 (11727254_a_at) / Fold change /veh TMEM51 (11727254_a_at) / RFU PIWIL2 (11732686_x_at) / Fold change /veh PIWIL2 (11732686_x_at) / RFU ORM1 (11744905_x_at) / Fold change /veh ORM1 (11744905_x_at) / RFU CCDC152 (11743942_at) / Fold change /veh CCDC152 (11743942_at) / RFU ECM1 (11717891_a_at) / Fold change /veh ECM1 (11717891_a_at) / RFU IL23R (11748794_a_at) / Fold change /veh IL23R (11748794_a_at) / RFU TNFAIP8L3 (11732012_x_at) / Fold change /veh TNFAIP8L3 (11732012_x_at) / RFU MBOAT4 (11741988_at) / Fold change /veh MBOAT4 (11741988_at) / RFU 11764193_at / Fold change /veh 11764193_at / RFU TMEM53 (11763286_at) / Fold change /veh TMEM53 (11763286_at) / RFU MAGEB2 (11727129_at) / Fold change /veh MAGEB2 (11727129_at) / RFU TMEM200A (11744735_a_at) / Fold change /veh TMEM200A (11744735_a_at) / RFU CCDC152 (11751479_a_at) / Fold change /veh CCDC152 (11751479_a_at) / RFU FAM211A (11726209_a_at) / Fold change /veh FAM211A (11726209_a_at) / RFU RGS16 (11746705_a_at) / Fold change /veh RGS16 (11746705_a_at) / RFU VCAN (11755009_s_at) / Fold change /veh VCAN (11755009_s_at) / RFU RHOB (11743442_s_at) / Fold change /veh RHOB (11743442_s_at) / RFU RGS16 (11720943_a_at) / Fold change /veh RGS16 (11720943_a_at) / RFU RGS16 (11720944_at) / Fold change /veh RGS16 (11720944_at) / RFU, VPS4B / Fold change vs veh, VPS4B / RFU, CREB1 / Fold change vs veh, CREB1 / RFU, DNAJC13 / Fold change vs veh, DNAJC13 / RFU, GNAQ / Fold change vs veh, GNAQ / RFU, CDK5R1 / Fold change vs veh, CDK5R1 / RFU, ZRANB3 / Fold change vs veh, ZRANB3 / RFU, CUL4A / Fold change vs veh, CUL4A / RFU, CCNY / Fold change vs veh, CCNY / RFU, UFL1 / Fold change vs veh, UFL1 / RFU, COG3 / Fold change vs veh, COG3 / RFU, DIAPH2 / Fold change vs veh, DIAPH2 / RFU, SKA2 / Fold change vs veh, SKA2 / RFU, AFF3 / Fold change vs veh, AFF3 / RFU, LMF1 / Fold change vs veh, LMF1 / RFU, IPO11 / Fold change vs veh, IPO11 / RFU, DFFB / Fold change vs veh, DFFB / RFU, FOXP1 / Fold change vs veh, FOXP1 / RFU, CARD8 / Fold change vs veh, CARD8 / RFU, STRN3 / Fold change vs veh, STRN3 / RFU, ADK / Fold change vs veh, ADK / RFU, RASSF2 / Fold change vs veh, RASSF2 / RFU, WIPF1 / Fold change vs veh, WIPF1 / RFU, LARP1B / Fold change vs veh, LARP1B / RFU, RASA1 / Fold change vs veh, RASA1 / RFU, RB1 / Fold change vs veh, RB1 / RFU, PPFIA1 / Fold change vs veh, PPFIA1 / RFU, MAT2A / Fold change vs veh, MAT2A / RFU, CCT5 / Fold change vs veh, CCT5 / RFU, WDR92 / Fold change vs veh, WDR92 / RFU, CUX1 / Fold change vs veh, CUX1 / RFU, TTC7A / Fold change vs veh, TTC7A / RFU, TMEM135 / Fold change vs veh, TMEM135 / RFU, DEPTOR / Fold change vs veh, DEPTOR / RFU, CPM / Fold change vs veh, CPM / RFU, DNAJB6 / Fold change vs veh, DNAJB6 / RFU, CACNA2D3 / Fold change vs veh, CACNA2D3 / RFU, DTX4 / Fold change vs veh, DTX4 / RFU, TFCP2 / Fold change vs veh, TFCP2 / RFU, GMCL1 /// GMCL1P1 / Fold change vs veh, GMCL1 /// GMCL1P1 / RFU, AEBP2 / Fold change vs veh, AEBP2 / RFU, SNHG1 /// SNORD22 /// SNORD25 /// SNORD26 /// SNORD27 /// SNORD28 /// SNORD29 /// SNORD31 / Fold change vs veh, SNHG1 /// SNORD22 /// SNORD25 /// SNORD26 /// SNORD27 /// SNORD28 /// SNORD29 /// SNORD31 / Fold change (Aza/veh), C12orf56 (ProbeSet 11735607_a_at) / Fold change (ACY-1035/veh), C12orf56 (ProbeSet 11735607_a_at) / Fold change (Aza/veh), FGFR1OP (ProbeSet 11751329_s_at) / Fold change (ACY-1035/veh), FGFR1OP (ProbeSet 11751329_s_at) / Fold change (Aza/veh), VPS36 (ProbeSet 11739960_a_at) / Fold change (ACY-1035/veh), VPS36 (ProbeSet 11739960_a_at) / RFU SYPL1 (11715823_x_at) / Fold change /veh SYPL1 (11715823_x_at) / RFU IGFBP7 (11715501_s_at) / Fold change /veh IGFBP7 (11715501_s_at) / RFU REEP3 (11722064_at) / Fold change /veh REEP3 (11722064_at) / RFU IGLL1 (11728026_x_at) / Fold change /veh IGLL1 (11728026_x_at): dose or concentration left out as unconfirmed. It counts as cell-based, human.

Regarding `Nc1ccc(-c2cccs2)cc1NC(=O)c1ccc2c(c1)cc(C1CC1)n2CCN1CCOCC1` [ACY-1035], the “Fold change /veh NPB (11741838_a_at)” value is given as 0.93.
